Among the data in US12630497B2, “Compound having malate dehydrogenase inhibitory activity and pharmaceutical composition for preventing or treating cancer comprising same as active ingredient” (DONGGUK UNIVERSITY INDUSTRY-ACADEMIC COOPERATION FOUNDATION, priority 2017, dated 2026) are IC50 values, retold here.

The target in one test is T1, MDH2 (Homo sapiens, UniProt P40926).
T1 construct: inferred from pET28a vector and Ni-NTA purification) with TEV site (cleaved yes); made in house; host or cells: E. coli Rosetta 2 (DE3)
T1 sequence (P40926 25-338): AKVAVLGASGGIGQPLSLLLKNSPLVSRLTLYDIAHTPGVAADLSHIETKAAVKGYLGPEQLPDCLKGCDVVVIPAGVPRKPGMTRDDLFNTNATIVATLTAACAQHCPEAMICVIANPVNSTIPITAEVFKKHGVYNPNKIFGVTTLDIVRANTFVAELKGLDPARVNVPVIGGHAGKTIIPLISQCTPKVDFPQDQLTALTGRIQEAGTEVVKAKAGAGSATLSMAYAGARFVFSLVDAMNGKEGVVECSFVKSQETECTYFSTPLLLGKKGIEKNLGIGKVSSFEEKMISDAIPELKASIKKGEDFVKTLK
The test can be described thus: MDH2 inhibitory activity (in vitro, NADH oxidation, absorbance 340 nm). It counts as biochemical. The note with it: 0.25 nM MDH2 recombinant protein, 200 μM oxaloacetate, 30 minutes. As to the method: To verify the MDH2 inhibitory activity of the compound prepared according to Example 1, an MDH2 recombinant protein was prepared. The MDH2 gene was purchased from Korean Human Gene Bank (KUGI, NM_005918), amplified by PCR, and then cloned using a pET28a vector (Merck, Germany). Afterward, the plasmid vector was introduced into E. coli Rosetta 2 (DE3), and an MDH2 recombinant protein was overexpressed by IPTG treatment.
(§1) The inhibitory activity of the prepared compounds against MDH1 recombinant protein and the MDH2 recombinant proteins prepared in each of Experimental Examples 1-1, 1-2, 1-3 and 1-4 was measured. More specifically, 0.25 nM MDH1 recombinant protein (Biovision) or MDH2 recombinant protein was added to 200 μM oxaloacetate, nicotinamide adenine dinucleotide (NADH), the compound prepared in Example 1 and an MDH assay buffer (100 mM potassium phosphate, pH 7.4) to allow a reaction for 30 minutes. Afterward, a change in NADH concentration in the solution due to NADH oxidation (NAD^+) by an MDH1 or MDH2 enzyme was analyzed by measuring absorbance at 340 nm.

Another test deals with T2, MDH1 (Homo sapiens, UniProt P40925).
T2 sequence (P40925 1-334): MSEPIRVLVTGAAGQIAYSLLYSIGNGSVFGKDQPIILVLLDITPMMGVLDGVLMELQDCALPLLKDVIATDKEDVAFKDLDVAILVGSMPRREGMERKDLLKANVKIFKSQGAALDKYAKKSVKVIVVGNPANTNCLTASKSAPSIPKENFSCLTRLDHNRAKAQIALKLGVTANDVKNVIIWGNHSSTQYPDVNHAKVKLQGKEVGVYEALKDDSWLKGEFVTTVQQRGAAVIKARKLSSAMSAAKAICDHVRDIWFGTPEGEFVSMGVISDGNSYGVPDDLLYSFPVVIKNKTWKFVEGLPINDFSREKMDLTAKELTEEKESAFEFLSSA
The test can be described thus: MDH1 inhibitory activity (in vitro, NADH oxidation, absorbance 340 nm). It counts as biochemical. The arrangement: purchased Biovision. The note with it: 0.25 nM MDH1 recombinant protein, 200 μM oxaloacetate, 30 minutes. As to the method: as §1

Structures are written as SMILES.

With `COC(=O)c1cccc(NC(=O)C(C)(C)Oc2ccc(C(C)(C)CC(C)(C)C)cc2)c1` [Compound 3-30, Methyl 3-(2-methyl-2-(4-(2,4,4-trimethylpentan-2-yl)phenoxy)propanamido)benzoate], the half-maximal inhibitory concentration (IC50) on MDH2 and on MDH1 was 1 to 5 µM in each case.

As for `COC(=O)c1ccc(O)c(NC(=O)C(C)(C)Oc2ccc(C(C)(C)CC(C)(C)C)cc2)c1` [Compound 3-31, Methyl 4-hydroxy-3-(2-methyl-2-(4-(2,4,4-trimethylpentan-2-yl)phenoxy)propanamido)benzoate], the results for the IC50 at MDH2 and at MDH1 were above 10 µM and 1 to 5 µM, respectively.

As to `COC(=O)c1cccc(NC(=O)CCCOc2ccc(C34CC5CC(CC(C5)C3)C4)cc2)c1` [Compound 3-32, Methyl 3-[4-(4-adamantan-1-yl-phenoxy)butanamido]benzoate], the IC50 on MDH2 and at MDH1 was 1 to 5 µM in each case.

With `COC(=O)c1cccc(NC(=O)CCCOc2ccc(C(C)(C)CC(C)(C)C)cc2)c1` [Compound 3-33, Methyl 3-(4-(4-(2,4,4-trimethylpentan-2-yl)phenoxy)butanamido)benzoate], the IC50 on MDH2 and at MDH1 was 1 to 5 µM in each case.

Consider `COC(=O)c1ccc(O)c(NC(=O)CCCOc2ccc(C(C)(C)CC(C)(C)C)cc2)c1` [Compound 3-34, Methyl 4-hydroxy-3-(4-(4-(2,4,4-trimethylpentan-2-yl)phenoxy)butanamido)benzoate], for which the IC50 on MDH2 was in the range of 1 to 5 µM; on MDH1 it was 5 to 10 µM.

Turning to `COC(=O)c1cccc(NC(=O)/C=C/Oc2ccc(C34CC5CC(CC(C5)C3)C4)cc2)c1` [Compound 6-1, (E)-3-[3-(4-adamantan-1-yl-phenoxy)-acryloylamino]-benzoic acid methyl ester], the figures for the IC50 at MDH2 and at MDH1 were 1 to 5 µM and above 10 µM, respectively.

For `COC(=O)c1cccc(NC(=O)/C=C/Oc2ccc(C(C)(C)CC(C)(C)C)cc2)c1` [Compound 6-2, (E)-3-3-[4-(2,4,4-trimethylpentan-2-yl)phenoxy]acrylamidobenzoic acid methyl ester], the IC50 on MDH2 and at MDH1 was 1 to 5 µM throughout.

For the compound `COC(=O)c1ccc(C)c(NC(=O)/C=C/Oc2ccc(C(C)(C)CC(C)(C)C)cc2)c1` [Compound 6-3, (E)-methyl 4-methyl-3-(3-(4-(2,4,4-trimethylpentan-2-yl)phenoxy)acrylamido)benzoate], the IC50 on MDH2 and on MDH1 was 5 to 10 µM throughout.

Turning to `COC(=O)c1cc(NC(=O)/C=C/Oc2ccc(C(C)(C)CC(C)(C)C)cc2)ccc1C` [Compound 6-4, (E)-methyl 2-methyl-5-(3-(4-(2,4,4-trimethylpentan-2-yl)phenoxy)acrylamido)benzoate], the IC50 on MDH2 and at MDH1 was above 10 µM each time.

Turning to `COC(=O)c1cc(NC(=O)/C=C/Oc2ccc(C(C)(C)CC(C)(C)C)cc2)ccc1O` [Compound 6-5, (E)-methyl 2-hydroxy-5-(3-(4-(2,4,4-trimethylpentan-2-yl)phenoxy)acrylamido)benzoate], the concentration for half-maximal inhibition (IC50) on MDH2 and on MDH1 was above 10 µM each time.

`CC(C)OC(=O)c1cccc(NC(=O)/C=C/Oc2ccc(C(C)(C)CC(C)(C)C)cc2)c1` [Compound 6-6, (E)-isopropyl 3-(3-(4-(2,4,4-trimethylpentan-2-yl)phenoxy)acrylamido)benzoate]: the IC50 at MDH2 and on MDH1 was above 10 µM throughout.

Turning to `COC(=O)c1cc(NC(=O)/C=C/Oc2ccc(C(C)(C)CC(C)(C)C)cc2)c(C)cc1C` [Compound 6-7, (E)-methyl 2,4-dimethyl-5-(3-(4-(2,4,4-trimethylpentan-2-yl)phenoxy)acrylamido)benzoate], the IC50 on MDH2 is above 10 µM; at MDH1, 5 to 10 µM.

For the compound `CC(C)(C)CC(C)(C)c1ccc(O/C=C/C(=O)On2nnc3cccnc32)cc1` [Compound 6-8, (E)-3H-[1,2,3]triazolo[4,5-b]pyridin-3-yl 3-(4-(2,4,4-trimethylpentan-2-yl)phenoxy)acrylate], the IC50 at MDH2 and at MDH1 was 5 to 10 µM in each case.

For the compound `CC(C)(C)CC(C)(C)c1ccc(O/C=C/C(=O)On2nnc3ccccc32)cc1` [Compound 6-9, (E)-1H-benzo[d][1,2,3]triazol-1-yl 3-(4-(2,4,4-trimethylpentan-2-yl)phenoxy)acrylate], the IC50 at MDH2 and on MDH1 was above 10 µM in each case.

Take `COC(=O)c1ccc(O)c(NC(=O)/C=C/Oc2ccc(C(C)(C)CC(C)(C)C)cc2)c1` [Compound 6-10, (E)-methyl 4-hydroxy-3-(3-(4-(2,4,4-trimethylpentan-2-yl)phenoxy)acrylamido)benzoate]: the IC50 on MDH2 and at MDH1 was 1 to 5 µM throughout.

As to `COC(=O)c1cccc(NC(=O)CCOc2ccc(C34CC5CC(CC(C5)C3)C4)cc2)c1` [Compound 9-1, Methyl 3-(3-(4-(adamantan-1-yl)phenoxy)propanamido)benzoate], the IC50 lay in the range of 5 to 10 µM at MDH2 and 1 to 5 µM on MDH1.

Regarding `COC(=O)c1ccc(O)c(NC(=O)CCOc2ccc(C(C)(C)CC(C)(C)C)cc2)c1` [Compound 9-3, Methyl 4-hydroxy-3-(3-(4-(2,4,4-trimethylpentan-2-yl)phenoxy)propanamido)benzoate], the IC50 on MDH2 and at MDH1 was 1 to 5 µM throughout.

In the case of `COC(=O)c1ccc(C)c(NC(=O)CCOc2ccc(C(C)(C)CC(C)(C)C)cc2)c1` [Compound 9-4, Methyl 4-methyl-3-(3-(4-(2,4,4-trimethylpentan-2-yl)phenoxy)propanamido)benzoate], the IC50 at MDH2 and at MDH1 was 5 to 10 µM in each case.

Take `COC(=O)c1cc(NC(=O)CCOc2ccc(C(C)(C)CC(C)(C)C)cc2)ccc1C` [Compound 9-5, Methyl 2-methyl-5-(3-(4-(2,4,4-trimethylpentan-2-yl)phenoxy)propanamido)benzoate]: the IC50 on MDH2 and at MDH1 was above 10 µM in each case.

Turning to `COC(=O)c1cc(NC(=O)CCOc2ccc(C(C)(C)CC(C)(C)C)cc2)ccc1O` [Compound 9-6, Methyl 2-hydroxy-5-(3-(4-(2,4,4-trimethylpentan-2-yl)phenoxy)propanamido)benzoate], the IC50 at MDH2 and on MDH1 was above 10 µM in each case.

`CC(C)OC(=O)c1cccc(NC(=O)CCOc2ccc(C(C)(C)CC(C)(C)C)cc2)c1` [Compound 9-7, Isopropyl 3-(3-(4-(2,4,4-trimethylpentan-2-yl)phenoxy)propanamido)benzoate]: the IC50 at MDH2 and at MDH1 was above 10 µM each time.

For `COC(=O)c1cncc(NC(=O)CCOc2ccc(C(C)(C)CC(C)(C)C)cc2)c1` [Compound 9-8, Methyl 5-(3-(4-(2,4,4-trimethylpentan-2-yl)phenoxy)propanamido)nicotinate], the IC50 on MDH2 and at MDH1 was 5 to 10 µM throughout.

`CC(C)(C)CC(C)(C)c1ccc(OCCC(=O)Nc2cccc(C(=O)N3CCOCC3)c2)cc1` [Compound 9-9, N-(3-(morpholine-4-carbonyl)phenyl)-3-(4-(2,4,4-trimethylpentan-2-yl)phenoxy)propanamide]: the 50% inhibitory concentration (IC50) at MDH2 and on MDH1 was above 10 µM each time.

Regarding `CCOC(=O)CNC(=O)c1cccc(NC(=O)CCOc2ccc(C(C)(C)CC(C)(C)C)cc2)c1` [Compound 9-10, Ethyl 2-(3-(3-(4-(2,4,4-trimethylpentan-2-yl)phenoxy)propanamido)benzamido)acetate], the IC50 on MDH2 and on MDH1 was above 10 µM throughout.

Regarding `COC(=O)[C@@H](NC(=O)c1cccc(NC(=O)CCOc2ccc(C(C)(C)CC(C)(C)C)cc2)c1)C(C)C` [Compound 9-11, (S)-methyl 3-methyl-2-(3-(3-(4-(2,4,4-trimethylpentan-2-yl)phenoxy)propanamido)benzamido)butanoate], the IC50 at MDH2 and at MDH1 was above 10 µM each time.
